Assays:
LolT [1] = biological target: T1, LolT (Penicillium expansum, UniProt A0A0A2J6G6); type: biochemical; conditions: 10 μM LolT, 4 mM diamino acid, pH 7.5 in D2O, 28° C.
Method: FIGS. 16A-16D provides reaction schematics and data of hydrogen-deuterium exchange assay of LolT with diamino acid substrate analogues. All reactions were monitored by 1H-NMR spectra and boiled enzymes were used as control. For mass data analysis, the reaction mixtures were derivatized with Fmoc-Cl.
H/D exchange assay. […] Reaction was incubated at 28° C. and monitored by NMR and LC-MS (reaction mixture was derivatized with Fmoc-Cl as described above before MS analysis). Fully deuterated products were further derivatized with Marfey's reagent (TCL) for chiral analysis. Briefly, an 80 μL reaction mixture was mixed with 20 μL acetone solution of Marfey's reagent (50 mM) and 20 μL NaHCO3 solution (1 M). The resulting mixture was incubated in a 42° C. water bath for 30 min. Next, 10 μL HCl (2M) was added to the derivatization mixture to quench the reaction. The resultant solution was analyzed on a Shimadzu LC-40 HPLC equipped with a Cosmosil, C18 AR-II analytical column. Derivatized amino acids were eluted with a linear gradient from 10% acetonitrile and to 40% acetonitrile over 20 min with a flow rate at 1 mL/min. All HPLC solvents (water and acetonitrile) were supplemented with 0.1% (v/v) formic acid.

LolD = biological target: T2, LolD (Epichloe uncinata, UniProt Q5MNI5); assay: Enzymatic assay for LolD (conversion monitored by HPLC/LC-MS after Fmoc-Cl derivatization); type: biochemical, E. uncinate; conditions: phosphate buffer pH 7.5, 28° C.
T2 construct: Bacterial expression plasmids were ordered from Twist Biosciences; made in house; host or cells: E. coli BL21(DE3)
T2 sequence (Q5MNI5 1-420): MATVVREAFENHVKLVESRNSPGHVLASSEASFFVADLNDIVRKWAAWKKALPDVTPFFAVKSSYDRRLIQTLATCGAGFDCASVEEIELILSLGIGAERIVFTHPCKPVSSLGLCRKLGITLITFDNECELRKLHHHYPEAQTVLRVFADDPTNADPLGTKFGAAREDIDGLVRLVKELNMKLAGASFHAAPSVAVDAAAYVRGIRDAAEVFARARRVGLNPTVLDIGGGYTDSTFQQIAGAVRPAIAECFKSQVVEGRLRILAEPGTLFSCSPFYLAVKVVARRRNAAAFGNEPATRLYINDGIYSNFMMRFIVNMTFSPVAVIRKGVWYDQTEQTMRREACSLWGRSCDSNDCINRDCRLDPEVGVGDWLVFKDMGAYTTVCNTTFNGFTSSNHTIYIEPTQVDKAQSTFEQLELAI
Excerpt: FIGS. 4A-4D provides schematics and data identifying LolT as a PLP-dependent Mannich cyclase. FIG. 4A provides a schematic depicting an elucidated pathway for the pyrrolizidine formation of loline. FIG. 4B provides HPLC analysis showing the reactions catalysed by LolT and LolD. All reactions were repeated for at least 3 times. Products were derivatized with Fmoc-Cl and analyzed by HPLC using a C18 column (Phenomenex Kinetex, 1.7 μm, 2.0×100 mm) with a linear elution gradient of 2-98% MeCN—H2O solvent system supplemented with 0.1% formic acid as additive. FIG. 4C provides DFT-calculated Mannich cyclization transition state for anti TS-1. FIG. 4D provides DFT-calculated Mannich cyclization transition state for syn TS-2.
FIGS. 7A-7B provides data of control experiments testing the function LolT and LolD using alternative substrates. FIG. 7A: Incubating LolD (10 μM) with 2 (1 mM) in phosphate buffer (pH 7.5) for 12 hrs at 28° C. FIG. 7B: Incubating LolT (1 μM) with decarboxylated 2 (1 mM) in phosphate buffer (pH 7.5) for 12 hrs at 28° C. All reactions were derivatized with Fmoc-Cl (50 mM) and analyzed by HPLC and LCMS. Decarboxylated 2 was prepared in situ by global deprotection of 12b, synthesis of 12b.
Enzymatic assays for LolT and LolD. […] The product was quantified based on the peak area of derivatized sample and compared with standard curve. […]

LolT [2] = biological target: T1, LolT; assay: Steady-state kinetic analysis of LolT-catalyzed Mannich cyclization; type: biochemical, P. expansum; conditions: reaction forming the named product
Method: FIGS. 10A-10B provide data of steady-state kinetic study of LolT and LolD. […] The results from both Fmoc-Cl and OPA derivatization were shown for comparison.
FIG. 10B: Kinetic analysis of LolD-catalyzed nonoxidative decarboxylation. All reactions were performed in assay buffer: phosphate buffer (pH 7.5), 50 μM PLP, corresponding substrate at various concentrations. For 5-endo cyclization, LolT was added to a final concentration of 0.1 μM and the reaction was quenched after 1 min; while for 6-endo cyclization, LolT was added to a final concentration of 1 μM and the reaction was quenched after 1 min, and for 7-endo cyclization, LolT was added to a final concentration of 10 μM and the reaction was quenched after 5 min. For decarboxylation reaction, LolD was added to a final concentration of 1 μM and the reaction was quenched after 20 min. The derivatization method was described in the methods section. All assays were performed in triplicates at 28° C. and individual point was shown on the plot. Except for reaction forming 5, all data were fitted to the standard Michalis-Menton equation.
Enzymatic assays for LolT and LolD. A typical reaction mixture (˜50 μl) includes ˜1 mM amino acid substrate in the assay buffer (50 mM K2HPO4, 50 μM PLP, pH 7.5). […] The product was quantified based on the peak area of derivatized sample and compared with standard curve. […]

LolT [3] = biological target: T1, LolT; assay: Two-component Mannich cyclization assay; type: biochemical, P. expansum; conditions: diamino acid plus aldehyde, KPi buffer
Method: Two-component Mannich cyclization assay. A typical reaction mixture at analytical scale (˜50 μL) includes 5 μM LolT, 5 mM diamino acid substrate, and 25 mM aldehyde substrates in 50 mM KPi buffer supplemented with 5% (v/v) DMSO. The reaction mixture was taken at different time points and derivatized with ortho-phthaldialdehyde (OPA) and 5-mercaptopentanoic acid before analysis on LC-MS. The pH value, reaction temperature, reaction time, and free PLP concentration (0.1%-10% mol) were optimized for selected reactions according to the analytic yield and diastereisomeric ratio (d.r.). Optimized reactions were scaled up to isolate the corresponding product for structural determination. To ease product isolation, the reaction mixtures were derivatized with Boc anhydride and isolated by reverse-phase chromatography. The isolated Boc-protected products were deprotected with TFA/CH2Cl2 and the isolation yields were calculated based on the Boc-protected form. To determine the enantiomeric excess (e.e.), isolated products were derivatized with Na-(5-fluoro-2,4-dinitrophenyl)-L-leucinamide and Na-(5-fluoro-2,4-dinitrophenyl)-D-leucinamide and separated on LC-MS. Briefly, 10 μL of amino acid product (10 mM in MeOH) was mixed with 10 μL of Na2CO3 (1 mM) and 10 μL of derivatizing reagent. […] The resulting mixture was analyzed by LC-MS.

T1 sequence (A0A0A2J6G6 entry or part of it): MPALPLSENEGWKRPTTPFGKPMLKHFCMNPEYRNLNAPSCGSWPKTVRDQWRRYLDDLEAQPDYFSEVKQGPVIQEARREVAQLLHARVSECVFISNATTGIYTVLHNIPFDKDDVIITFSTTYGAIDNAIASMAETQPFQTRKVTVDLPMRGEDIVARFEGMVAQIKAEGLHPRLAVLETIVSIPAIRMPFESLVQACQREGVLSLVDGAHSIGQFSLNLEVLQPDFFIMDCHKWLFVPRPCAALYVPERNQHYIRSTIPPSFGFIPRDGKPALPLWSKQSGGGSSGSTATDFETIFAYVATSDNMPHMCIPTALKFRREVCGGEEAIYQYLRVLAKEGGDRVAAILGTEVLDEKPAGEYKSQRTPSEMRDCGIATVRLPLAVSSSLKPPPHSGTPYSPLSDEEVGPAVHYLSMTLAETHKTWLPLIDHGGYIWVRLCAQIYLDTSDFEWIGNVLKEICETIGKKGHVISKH

| SMILES | Cα-H H/D exchange (carbanion formation) with LolT in D2O (in words) (LolT [1]) | decrease of catalytic efficiency in comparison with 5-endo-trig cyclization to make 3 (LolT [2]) | further results |
| --- | --- | --- | --- |
| NCC[C@@H](N)C(=O)O [D-Dab] | no H/D exchange occurred | – | – |
| NCC[C@H](N)C(=O)O [L-Dab, (S)-2,4-diaminobutanoic acid] | rapidly washed out | – | – |
| N[C@@]1(C(=O)O)CCN2CCC[C@@H]21 [compound 3, (1S,7aR)-1-aminohexahydro-1H-pyrrolizine-1-carboylic acid] | – | – | conversion on incubation with LolD (in words) (LolD): quantitative conversion |
| N[C@@]1(C(=O)O)CCCN2CCC[C@@H]21 [compound 5, (8S,8aR)-8-aminooctahydroindolizine-8-carboxylic acid] | – | ~12 fold | – |
| N[C@@]1(C(=O)O)CCCCN2CCC[C@@H]21 [compound 7, (9S,9aR)-9-aminooctahydro-1H-pyrrolo[1,2-a]azepine-9-carboxylic acid] | – | ~1,000 fold | – |
| NCCCC[C@H](N)C(=O)O [lysine] | – | – | Mannich cyclization as amino acid donor with aldehydes (in words) (LolT [3]): No Mannich cyclization reaction took place |

From US20250027123A1, “Compositions, Systems, and Methods for Performing a Mannich Cyclization Reaction” (The Regents of the University of California, priority 2023, published 2025)
